Series [1] is described as follows: Aqueous solubility of salts (salt screen). The class given is physicochemical. Particulars: target 10 mg/ml at 25° C., unbuffered.
Series [2] has as its system ovalbumin-sensitized mice. As to the kind of experiment: Airway hyperresponsiveness (Penh) and BALF cell counts. It counts as in vivo, mouse. As to the method: Using the method of Hamelmann et al, (2S,3R)—N-2-((3-pyridinyl)methyl)-1-azabicyclo[2.2.2]oct-3-yl)-3,5-difluorobenzamide was evaluated for possible inhibition of airway hyper-responsiveness in mice. Briefly, ovalbumin (OVA)-sensitized animals, 12 animals per group, were challenged by nasal inhalation with aerosolized 5% OVA for 25 min on days 21, 23, and 25. The mice were treated with vehicle or (2S,3R)—N-2-((3-pyridinyl)methyl)-1-azabicyclo[2.2.2]oct-3-yl)-3,5-difluorobenzamide subcutaneously (s.c.) twice daily from day 21 to day 26 or once daily intratracheally (i.t.), preceding ovalbumin aerosol challenge by 30 min on days 21, 23 and 25 as well as methacholine challenge or bronchoalveolar lavage fluids (BALF) harvest on day 26. Dexamethasone, the reference standard, was administered at 3 mg/kg orally (p.o.) once daily 60 min before OVA challenge on day 21, 23 and 25 and 60 min before methacholine provocation or BALF harvest on day 26. Noninvasive measurements of airway responsiveness were performed by using whole body plethysmography, in which increases in enhanced pause (Penh) serve as an index of airway obstruction. Responses to inhaled methacholine were measured and calculated as percentage of respective baseline values. Unpaired Students t-test was used for comparison between the vehicle control and the sham group; one-way ANOVA and Dunnett's post-hoc analyses were applied for comparison between the vehicle control and treated groups. Statistical significance is considered at P<0.05.

Series [3] has as its system db/db mouse. As to the kind of experiment: Murine model of type 2 diabetes mellitus (db/db). The class given is in vivo. Particulars: MLA 3 mg/kg daily via gavage with Compound A 1.0 mg/kg, obese mice. The source says: The db/db mouse, a well established model of type 2 diabetes mellitus, is a leptin-deficient mutant that expresses an obese phenotype and also commonly expresses metabolic symptoms including hyperglycemia, hyperlipidemia and hyperinsulinemia (Halaas et al., 1995 and Lee et al., 1996). This experimental animal model of diabetes was employed in a study designed to determine the effects of (2S,3R)—N-2-((3-pyridinyl)methyl)-1-azabicyclo[2.2.2]oct-3-yl)-3,5-difluorobenzamide on body mass and several additional metabolic parameters.
In this study, (2S,3R)—N-2-((3-pyridinyl)methyl)-1-azabicyclo[2.2.2]oct-3-yl)-3,5-difluorobenzamide was repeatedly administered orally (via gavage) at 1.0 mg/kg once daily starting from the age of approximately 3 weeks and continuing throughout the 7-week study. Nondiabetic heterozygote littermate mice (db/+; designated “Db”) were used as controls. Body weight and food intake were determined twice weekly. The α7 antagonist methyllycaconitine (MLA) was also given concurrently via gavage at 3 mg/kg daily to selected cohorts of db/db (designated “db”) or db/+mice. At the end of the 7-week dosing regimen, total growth rates (overall body weight gain) and average daily food intake were calculated. In addition, glucose levels were assessed in mice fasted overnight. Furthermore, blood sample analytes from mice fasted overnight were collected for measurements of tumor necrosis factor-a (TNF-α), triglycerides and glycosylated hemoglobin (HbA1c). All data are expressed as mean±SEM. For each parameter investigated, differences among all groups were compared by one-way ANOVA with post-hoc Neuman-Keuls multiple comparison test.

For series [4], the system named is STZ rat model of diabetic neuropathy. The experiment in a line: Streptozotocin (STZ)-induced diabetic neuropathy, Von Frey allodynia. It counts as in vivo. Particulars: 150 mg/kg i.p., 2 hours before testing, all treatment days, vs pretreatment and vehicle, p<0.01. The source says:
Peripheral neuropathy, a major complication of diabetes, often results in spontaneous pain or the perception of pain from contact with a normally non-noxious stimulus. Such neuropathic pain is experienced by 20-24% of diabetic patients, or approximately 30 million people worldwide (Schmader, 2002). The streptozotocin (STZ)-induced diabetes model in rats provides a means to evaluate the efficacy of test compounds that offer therapeutic potential for peripheral neuropathy and to understand their putative mechanism of action. In this model, a single injection of STZ, an antibiotic that mimics clinical diabetes by causing irreversible damage to the pancreatic β and α-cells leads to chronic hyperglycemia, nerve dysfunction and pain sensitivity. The current study utilizes the STZ rat model of diabetic neuropathy to investigate the effects of (2S,3R)—N-2-((3-pyridinyl)methyl)-1-azabicyclo[2.2.2]oct-3-yl)-3,5-difluorobenzamide on mechanical allodynia, an assessment of pain.
Diabetes was induced by a 0.5 ml injection of streptozotocin (60 mg/kg) dissolved in citrate buffer (pH) into the tail vein of each rat The development of diabetes was confirmed by measuring the blood glucose levels (BGL) of all animals on study day 3 (BGL>300 mg/dL). […] These animals were tested again for their BGL at study day 23.
(2S,3R)—N-2-((3-pyridinyl)methyl)-1-azabicyclo[2.2.2]oct-3-yl)-3,5-difluorobenzamide (0.1, 1 or 10 mg/kg p.o.) was administered as a solution of the hydrochloride salt in water once daily starting on study day 14 or study day 16 and continuing through study day 21 or 23, respectively. The control article gabapentin (in 0.9% saline, 150 mg/kg i.p.) was only administered on allodynia test days. Test item, vehicle or control article administration was based on evaluation of allodynia on study day 14. If allodynia was not present on study day 14, the animal was evaluated again at study day 16. Pain response was measured either on study days 14 and 21 or 16 and 23, 30 minutes after Test Item administration.
For the allodynia assessments, Von Frey filaments were used according to the methods of Chaplan and colleagues (1994). Briefly, the rats were placed in an enclosure and positioned on a metal mesh surface, but allowed to move freely. The rats' cabins were covered with red cellophane to diminish environmental distributions. The test began after cessation of exploratory behavior.
When the tip of a Von Frey fiber of given length and diameter was pressed against the skin at right angles, the force of application increases as long as the researcher continued to advance the probe until the fiber bent. After the fiber bent, the probe was advanced, causing the fiber to bend more, but without additional force being applied. The animal would indicate sensation by pulling back its paw. In the absence of a paw withdrawal response to the initially selected filament, a stronger stimulus was presented; in the event of paw withdrawal, the next weaker stimulus was chosen. In this fashion, the resulting pattern of positive and negative responses was used to determine the paw withdrawal threshold.
The set of Von Frey monofilaments provide an approximate logarithmic scale of actual force and a linear scale of perceived intensity. Below is a table showing the force (g) and its corresponding size of monofilaments.
All normally distributed data are presented as means±SEM, as well as the animals' individual values followed by a student T-test (Software: Microsoft® Excel). A p value <0.05 is considered to represent a significant difference. Due to the non-normal distribution of the allodynia data, descriptions of those data are provided as both mean (±SEM) and median values in order to represent their imprecise nature and skewed distribution.

In general, Aqueous Solubility refers to the concentration that dissolves in the medium under given conditions. Turning to `O=C(N[C@@H]1C2CCN(CC2)[C@H]1Cc1cccnc1)c1cc(F)cc(F)c1.O=C(N[C@@H]1C2CCN(CC2)[C@H]1Cc1cccnc1)c1cc(F)cc(F)c1.O=C(O)c1ccc(O)cc1` [4-Hydroxybenzoate mono salt], the “Aqueous Solubility” value in series [1] is above 10000 µg/mL.

`C[C@@H]1C[C@H]2[C@@H]3CCC4=CC(=O)C=C[C@]4(C)[C@@]3(F)[C@@H](O)C[C@]2(C)[C@@]1(O)C(=O)CO` [Dexamethasone, reference compound]: the “methacholine (10 and 30 mg/mL)-induced increase in Penh values” in series [2] (3 mg/kg PO once daily, reference standard) was “significant inhibition”. Also, in series [2] (3 mg/kg p.o. once daily), the “increase in total WBC, neutrophils, lymphocytes, monocytes and eosinophils in BALF” value is “inhibited significantly”.

Regarding `O=C(N[C@@H]1C2CCN(CC2)[C@H]1Cc1cccnc1)c1cc(F)cc(F)c1.O=C(O)/C=C/C(=O)O` [Fumarate mono salt], the “Aqueous Solubility” value in series [1] is above 10000 µg/mL.

Consider `Cl.O=C(N[C@@H]1C2CCN(CC2)[C@H]1Cc1cccnc1)c1cc(F)cc(F)c1` [Hydrochloride mono salts], for which the “Aqueous Solubility” value in series [1] is above 10000 µg/mL.

Turning to `CCN1C[C@]2(COC(=O)c3ccccc3N3C(=O)C[C@H](C)C3=O)CC[C@H](OC)[C@@]34[C@@H]5C[C@H]6[C@H](OC)[C@@H]5[C@](O)(C[C@@H]6OC)[C@@](O)([C@@H](OC)[C@H]23)[C@@H]14` [MLA, methyllycaconitine, reference compound], in series [3], the “effect of MLA co-administration on the inhibition of fasting plasma glucose” value was “not reversed”, the “effect of MLA co-administration on the reduced food consumption” value is given as “failed to show the reduced daily average food consumption”, the “effect of MLA co-administration on the reduced weight gain” value is “failed to show the reduced weight gain” and the “effect of MLA co-administration on the reduction in glycosylated HbA1c” value is recorded as “attenuated”. Also, in series [3], the “effect of MLA co-administration on the reduction in triglycerides” value is recorded as “not attenuated” and the “effect of MLA co-administration on the reduction of TNF alpha” value is recorded as “inhibited”.

Consider `O=C(N[C@@H]1C2CCN(CC2)[C@H]1Cc1cccnc1)c1cc(F)cc(F)c1.O=P(O)(O)O` [Phosphate mono salts], for which the “Aqueous Solubility” value in series [1] is above 10000 µg/mL.

For the compound `NCC1(CC(=O)O)CCCCC1` [gabapentin, reference compound], in series [4], the tactile allodynia result is “reversed the tactile allodynia significantly”.

(Values after patent publication US20110312961A1, “2,5-Disubstituted Morpholine Orexin REceptor Antagonists” (priority 2008, published 2011).)
